Each compound was assayed against T1, GST-tagged GDP-loaded KRAS G12V (amino acids 1-169) (Homo sapiens, UniProt P01116, G12V) (assay: KRAS G12V probe displacement assay (TR-FRET)). Details: displacement of biotinylated probe 2 from GDP-loaded KRAS G12V.
T1 construct: GST-tagged GDP-loaded KRAS G12V (amino acids 1-169); made in house; host or cells: E. coli
T1 sequence (P01116 1-169 isoform P01116-2 G12V): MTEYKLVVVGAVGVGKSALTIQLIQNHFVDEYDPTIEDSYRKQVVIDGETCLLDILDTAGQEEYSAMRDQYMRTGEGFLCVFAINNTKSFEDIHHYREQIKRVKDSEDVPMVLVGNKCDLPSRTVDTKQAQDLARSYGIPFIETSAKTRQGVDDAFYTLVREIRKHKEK
Type: binding
Summary of the method: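 GST-tagged GDP-loaded KRAS 1-169 (WT 3 nM; G12V 2 nM final) preincubated 1 h at 24 °C with serially diluted compound in HEPES pH 7.5 buffer, then biotinylated probe added (probe 1 60 nM for WT; probe 2 2.5 nM for G12V), 1 h. Anti-GST-Tb/streptavidin-XL665 TR-FRET 665/620 ratio; IC50 by four-parameter fit.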
Compound N#CC1CCN(c2nc(OC[C@@]34CCCN3C[C@H](F)C4)nc3c(F)c(-c4cc(N)cc(Cl)c4C(F)(F)F)ncc23)CC1 [Example 121, 1-(7-(5-amino-3-chloro-2-(trifluoromethyl)phenyl)-8-fluoro-2-(((2R,7aS)-2-fluorotetrahydro-1H-pyrrolizin-7a(5H)-yl)methoxy)pyrido[4,3-d]pyrimidin-4-yl)piperidine-4-carbonitrile] has an IC50 of 13 nM.
N#CC1CCN(c2nc(OC[C@@]34CCCN3C[C@H](F)C4)nc3c(F)c(-c4cc(N)cc(Cl)c4C(F)(F)F)ncc23)CC1F (stereo partly drawn) [Example 122, 1-(7-(5-amino-3-chloro-2-(trifluoromethyl)phenyl)-8-fluoro-2-(((2R,7aS)-2-fluorotetrahydro-1H-pyrrolizin-7a(5H)-yl)methoxy)pyrido[4,3-d]pyrimidin-4-yl)-3-fluoropiperidine-4-carbonitrile] gave an IC50 of 28 nM.
Compound CC1CN(c2nc(OC[C@@]34CCCN3C[C@H](F)C4)nc3c(F)c(-c4cc(N)cc(Cl)c4C(F)(F)F)ncc23)CCC1C#N (stereo partly drawn) [Example 123, 1-(7-(5-amino-3-chloro-2-(trifluoromethyl)phenyl)-8-fluoro-2-(((2R,7aS)-2-fluorotetrahydro-1H-pyrrolizin-7a(5H)-yl)methoxy)pyrido[4,3-d]pyrimidin-4-yl)-3-methylpiperidine-4-carbonitrile] has an IC50 of 22 nM.
With CC1CC(C#N)CCN1c1nc(OC[C@@]23CCCN2C[C@H](F)C3)nc2c(F)c(-c3cc(N)cc(Cl)c3C(F)(F)F)ncc12 (stereo partly drawn) [Example 124, 1-(7-(5-amino-3-chloro-2-(trifluoromethyl)phenyl)-8-fluoro-2-(((2R,7aS)-2-fluorotetrahydro-1H-pyrrolizin-7a(5H)-yl)methoxy)pyrido[4,3-d]pyrimidin-4-yl)-2-methylpiperidine-4-carbonitrile] the IC50 was 15 nM.
N#CCC1CCN(c2nc(OC[C@@]34CCCN3C[C@H](F)C4)nc3c(F)c(-c4cc(N)cc(Cl)c4C(F)(F)F)ncc23)CC1 [Example 125, 2-(1-(7-(5-amino-3-chloro-2-(trifluoromethyl)phenyl)-8-fluoro-2-(((2R,7aS)-2-fluorotetrahydro-1H-pyrrolizin-7a(5H)-yl)methoxy)pyrido[4,3-d]pyrimidin-4-yl)piperidin-4-yl)acetonitrile] was tested, and the IC50 was 81 nM.
N#CCC1CCCN(c2nc(OC[C@@]34CCCN3C[C@H](F)C4)nc3c(F)c(-c4cc(N)cc(Cl)c4C(F)(F)F)ncc23)C1 (stereo partly drawn) [Example 126, 2-(1-(7-(5-amino-3-chloro-2-(trifluoromethyl)phenyl)-8-fluoro-2-(((2R,7aS)-2-fluorotetrahydro-1H-pyrrolizin-7a(5H)-yl)methoxy)pyrido[4,3-d]pyrimidin-4-yl)piperidin-3-yl)acetonitrile] showed an IC50 of 6.3 nM.
Compound Nc1cc(Cl)c(C(F)(F)F)c(-c2ncc3c(N4CCC(O)CC4)nc(OC[C@@]45CCCN4C[C@H](F)C5)nc3c2F)c1 [Example 127, 1-(7-(5-amino-3-chloro-2-(trifluoromethyl)phenyl)-8-fluoro-2-(((2R,7aS)-2-fluorotetrahydro-1H-pyrrolizin-7a(5H)-yl)methoxy)pyrido[4,3-d]pyrimidin-4-yl)piperidin-4-ol] has an IC50 of 21 nM.
In the case of C[C@]1(O)CCCN(c2nc(OC[C@@]34CCCN3C[C@H](F)C4)nc3c(F)c(-c4cc(N)cc(Cl)c4C(F)(F)F)ncc23)C1 [Example 129, (S)-1-(7-(5-amino-3-chloro-2-(trifluoromethyl)phenyl)-8-fluoro-2-(((2R,7aS)-2-fluorotetrahydro-1H-pyrrolizin-7a(5H)-yl)methoxy)pyrido[4,3-d]pyrimidin-4-yl)-3-methylpiperidin-3-ol], the IC50 is reported as 15 nM.
For CCC1(O)CCCN(c2nc(OC[C@@]34CCCN3C[C@H](F)C4)nc3c(F)c(-c4cc(N)cc(Cl)c4C(F)(F)F)ncc23)C1 (stereo partly drawn) [Example 130, 1-(7-(5-amino-3-chloro-2-(trifluoromethyl)phenyl)-8-fluoro-2-(((2R,7aS)-2-fluorotetrahydro-1H-pyrrolizin-7a(5H)-yl)methoxy)pyrido[4,3-d]pyrimidin-4-yl)-3-ethylpiperidin-3-ol], the IC50 was 32 nM.

— patent US20250101028A1, “HETEROCYCLIC COMPOUNDS, COMPOSITIONS THEREOF, AND METHODS OF TREATMENT THEREWITH” (BeiGene, Ltd., priority 2022, published 2025)
